Source: patent publication US9925206B2, “Compositions and methods for treating bacterial infection” (priority 2015, dated 2018)
Like-named read-outs stand apart in the source and are kept apart here.

Columns and labels:
P. aeruginosa biofilm = conditions: acidified nitrite 15, 25, 35 mM and EDTA 1, 5, 10 mM alone, aerobic and anaerobic, 24 hours treatment
Protocol: In order to determine the efficacy of the combination treatment for biofilm elimination, we employed a Crystal Violet assay. This allows us to determine the total biomass of the biofilm.
Crystal Violet stains biofilm mass which is a quantitative measure of biofilm density/thickness, but not necessarily viability (live/dead) of the biomass.
Cultures are grown for 24 hours aerobically or anaerobically, and then treated for 24 hours before assay.
P. aeruginosa was allowed to adhere to 96 well polystyrene 96 well microplates at incubate at 37° C. under aerobic vs. anaerobic conditions. The biofilms were washed with PBS and stained with 1% crystal violet (CV) for 15 minutes at room temperature. The CV was removed and the stained bacteria washed an additional 3 times prior to solubilization of the CV with 95% ethanol. The absorbance at 590 nm was monitored using a microplate reader.

[1] = cited from earlier work
PA = conditions: EDTA alone; cited from earlier work
P. aeruginosa (PAO1) = conditions: 10 mM EDTA; 30 mM NaNO2; 10 mM EDTA-10 mM NaNO2
Protocol: BALB/c mice (8 per group) were infected with 1.7×10^6 P. aeruginosa (PAO1) in 1 mg/ml alginate.
The infected mice (n=8) were treated with either (i) 10 mM PBS, pH 6.5, (ii) 10 mM EDTA in PBS, pH 6.5, (iii) 30 mM NaNO2 in PBS, pH 6.5, or (iv) 10 mM EDTA-10 mM NaNO2 in PBS, pH 6.5. Agents were administered as inhaled therapies beginning at 12 hours post-inoculation and continued once daily.

P. aeruginosa = test: Checkerboard assay of EDTA and antibiotics with and without acidified nitrite background; format: cell-based, Pseudomonas aeruginosa
Protocol: The antibiotic agents used in these studies included Tobramycin, Azithromycin, Colistin, Ticarcillin, Ciprofloxacin, Sulfametoxazole, Sulfamethazine, Tetracycline, Vancomycin, Imipenem, and Cefepime. […] Aerobic samples are incubated for 24 or 48 hours, and anaerobic samples are incubated for 48 hours.

PA strain PAO1 = test: Optical density growth/viability of PAO1 with A-NO2-, EDTA and/or tobramycin; format: cell-based, Pseudomonas aeruginosa; conditions: for growth of PAO1: 15 mM A-NO2- or 1 mM EDTA and 2 μg/ml TOBI
Protocol: FIG. 2 represent optical density measurements with control (untreated) bacteria arbitrarily set to 1.0 after 24 and 48 hr of growth at 37° C. in a standard rich medium known Luria broth (LB). Another experiment included the powerful aminoglycoside antibiotic, tobramycin (TOBI), that is commonly used for the treatment of PA CF/COPD lung infections (Moreau-Marquis S, et al. 2009. Am J Respir Cell Mol Biol 41:305-313; Dal Negro R, et al. 2008. Adv Ther 25:1019-1030). Nitrite was used at 25 mM (aerobic) or 15 mM (anaerobic); EDTA, 1.0 mM; TOBI, 2 μg/ml. Anaerobic LB was supplemented with 0.1 M potassium phosphate, pH 6.5 and 100 mM KNO3 as a terminal electron acceptor for anaerobic growth.

[2] = system: mucoid FRD1 and non-mucoid FRD1/pmucA; conditions: anaerobic 15 mM NO2-, pH 6.5, after 5 days, cited from earlier work
FRD1/pmucA = conditions: mucA complemented strain, pH values between 6.0 and 7.5; cited from earlier work
[3] = system: non-mucoid strains, PAO1 and FRD1/pmucA; conditions: 15 mM A-NO2-, pH 6.5, anaerobic, 4 day incubation; cited from earlier work
non-mucoid FRD1/pmucA = conditions: cited from earlier work
anaerobic FRD1 biofilms = conditions: 15 mM NO2-, cited from earlier work
mucoid FRD1 = conditions: cited from earlier work
FRD1 = conditions: mucA mutant FRD1; cited from earlier work
mucoid PA CF strain FRD1 = conditions: 15 mM A-NO2-, pH 6.5, anaerobic; cited from earlier work

## O=C(O)CN(CCN(CC(=O)O)CC(=O)O)CC(=O)O [EDTA, ethylene diamine tetraacetic acid, reference compound]
P. aeruginosa biofilm
  biomass density/thickness of biofilm: reduction of biomass density/thickness
[1]; in vivo
  toxicity in humans: minimal toxicity
PA
  clinical course or airway microbial flora: not modify the clinical course or the airway microbial flora
P. aeruginosa (PAO1)
  average CFU/lung relative to control (PBS): reduced
P. aeruginosa; nitrite background 7.5 mM
  MICs of EDTA upon addition of acidified nitrite: decreased
PA strain PAO1
  growth of PAO1: initially impaired

## NC[C@H]1O[C@H](O[C@H]2[C@H](O)[C@@H](O[C@H]3O[C@H](CO)[C@@H](O)[C@H](N)[C@H]3O)[C@H](N)C[C@@H]2N)[C@H](N)C[C@@H]1O [TOBI, tobramycin]
P. aeruginosa
  bactericidal activity of the antibiotic when combined with NaNO2 and EDTA: synergistically increases the bactericidal activity
PA strain PAO1
  growth of PAO1: initially impaired
PA strain PAO1; anaerobic conditions, TOBI 2 μg/ml
  killing PA: not effective

## CC[C@H]1OC(=O)[C@H](C)[C@@H](O[C@H]2C[C@@](C)(OC)[C@@H](O)[C@H](C)O2)[C@H](C)[C@@H](O[C@@H]2O[C@H](C)C[C@H](N(C)C)[C@H]2O)[C@](C)(O)C[C@@H](C)CN(C)[C@H](C)[C@@H](O)[C@]1(C)O [Azithromycin]
P. aeruginosa
  bactericidal activity of the antibiotic when combined with NaNO2 and EDTA: synergistically increases the bactericidal activity
P. aeruginosa; compared with the other antibiotic agents
  result in combination with EDTA/NO2-: best results so far in combination

## acidified nitrite [A-NO2^−]
[2]; three bacterial ratios
  CFU of mucoid FRD1 in mixed culture: < 10^3 CFU/ml
[2]
  viability of mucoid FRD1 in mixed culture: lost viability
  viability of non-mucoid FRD1/pmucA in mixed culture: maintained viability
P. aeruginosa biofilm
  biomass density/thickness of biofilm: reduction of biomass density/thickness
[1]; each agent separately
  toxicity in humans: minimal toxicity
FRD1/pmucA
  killing as a function of pH: little or no killing
P. aeruginosa (PAO1)
  average CFU/lung relative to control (PBS): reduced
[3]
  viability of non-mucoid strains: remained viable
non-mucoid FRD1/pmucA; complemented strain FRD1/pmucA, CD1 mouse airways, 6 days
  competitive index: ~1.0
non-mucoid FRD1/pmucA; pH 6.5 and pH 5.5
  decrease of bacteria in mouse lungs: not
Anaerobic FRD1 biofilms; pH 6.5, 2 days
  death of biofilm bacteria: nearly complete death of biofilm bacteria
Anaerobic FRD1 biofilms; pH 7.5, 2 days
  biofilm structure and cell viability relative to control biofilms: no difference in biofilm structure and cell viability
Mucoid FRD1; 15 mM NO2- daily for 16 days
  bacteria in mouse lungs after long-term treatment: no bacteria detected
Mucoid FRD1; FRD1, 10^6 intratracheally instilled into CD1 mouse airways, 6 days
  competitive index: ~0.2
Mucoid FRD1; pH 5.5, daily treatment
  decrease of bacteria in mouse lungs: > 3 logs
Mucoid FRD1; pH 6.5, daily treatment
  decrease of bacteria in mouse lungs: > 2 logs
PA strain PAO1
  growth of PAO1: initially impaired
FRD1
  killing as a function of pH: more effectively at lower pH
Mucoid PA CF strain FRD1
  rate of killing of mucoid FRD1: ~90 % per day
